In brackets after ≈: the same amount, converted by molar mass. Like-named read-outs stand apart in the source and are kept apart here.
How the values were obtained:
[1] = Mouse liver microsome stability assay; assay type: in vitro ADME
Protocol: Mouse Liver Microsome Stability Assay. A mixture of PBS (pH 7.4), NADPH regenerating system solution A (Corning Life Sciences), and NADPH regenerating system solution B (Corning Life Sciences) was incubated at 37° C. in a shaking incubator for 5 min. Next, compound was added in DMSO (final concentration 50 μM, 0.5% DMSO) before ice-cold mouse liver microsomes (Thermo Fisher, male CD-1 mice, pooled) were added (final protein concentration of 1 mg/mL). An aliquot was immediately removed, quenched with an equal volume of 100 μM internal standard and centrifuged at 13,000 rcf for 3 min. The reactions were incubated at 37° C. in a shaking incubator for 3 h. A second aliquot was removed and quenched. Samples were analyzed with the 5500 QTRAP LC/MS/MS system (Sciex, Framingham, MA) in Metabolomics Lab of Roy J. Carver Biotechnology Center, University of Illinois at Urbana-Champaign. Software Analyst 1.6.2 was used for data acquisition and analysis. The 1200 series HPLC system (Agilent Technologies, Santa Clara, CA) includes a degasser, an autosampler, and a binary pump. The LC separation was performed on an Agilent Sb-Aq column (4.6×50 mm, […]) with mobile phase A (0.1% formic acid in water) and mobile phase B (0.1% formic acid in acetonitrile). The flow rate was 0.3 mL/min. The linear gradient was as follows: 0-3 min, 100% A; 10-16 min, 5% A; 16.5-22 min, 100% A. The autosampler was set at 10° C. The injection volume was 1 μL. Mass spectra were acquired under both positive (ion spray voltage was +5500 V) and negative (ion spray voltage was −4500 V) electrospray ionization (ESI). The source temperature was 450° C. The curtain gas, ion source gas 1, and ion source gas 2 were 33, 65, and 60 psi, respectively. Multiple reaction monitoring (MRM) was used for quantitation.

[2] = test system: human foreskin fibroblasts (HFF-1); assay: Cell viability, Alamar Blue assay; assay type: cell-based; details: 72 h incubation, error SEM n = 2, listed as FA(1), read-out: IC50, Mammalian Toxicity in HFF-1
Protocol: Cell Culture. HFF-1 cells were obtained from ATCC. HFF-1 cells were grown in DMEM with 15% fetal bovine serum (Gemini Benchmark, Cat #100-106), 100 U/mL penicillin, and 100 μg/mL streptomycin. All cells were cultured at 37° C. in a 5% CO2 environment. Media was prepared by the University of Illinois School of Chemical Sciences Cell Media Facility.
Cell Viability. Cells were harvested, seeded in a 96 well-plate and allowed to adhere. Cells were treated with investigational compounds in DMSO (1% final concentration). Cells were incubated for 72 h before viability was assessed by the Alamar Blue Assay. Raptinal ([…]) was used as a dead control.

[3] = test system: S. aureus resistant mutants with EF-G (fusA) mutations; assay: microbe, parasite or virus in culture; assay type: cell-based; details: for MIC: Staphylococcus aureus
Protocol: (§1) Antimicrobial Susceptibility Tests. Susceptibility testing was performed in biological triplicate, using the micro-dilution broth method as outlined by the Clinical and Laboratory Standards Institute. Bacteria were cultured with cation-adjusted Muller-Hinton broth (Sigma-Aldrich, Cat #90922) in round-bottom 96-well plates (Corning, Cat #3788). Human serum (Ultrafiltrate, unspecified gender, 30K Dalton membrane filtered) was purchased from BioIVT (Hicksville, NY).
(§2) Selection of Resistant Mutants. Resistant mutants were selected via the large inoculum method. Briefly, S. aureus ATCC 29213 (1×10^9 CFU) were plated on 100 mm plates of LB agar containing 4, 2, 1, 0.5, and 0.25 μg/mL.
(§3) Sequencing of fusA. FusA was amplified by colony PCR. Colonies were picked and diluted in 100 μL sterile H2O. PCR reactions are setup by combining MiFi Mix (Bioline, London, UK), 20 μM primer mix [fusA-F2, fusA_seq1, Forward EF-G2, and Reverse EF-G](S. aureus ATCC 29213), template DNA, and H2O. Reactions were performed on C1000 Thermal Cycler (Bio-Rad, Hercules, CA) with the following conditions: 5 minutes denaturation at 95° C., followed by 30 cycles of 20 seconds at 95° C., 20 seconds at 50° C., and either 1 minute (fusA1) or 1.5 minutes (fusA2) at 72° C. A 10 μL portion of the PCR reaction mixture was analyzed by agarose gel to confirm the product. PCR reactions were purified using GeneJET PCR Purification Kit (Thermo Scientific). PCR amplicons were submitted to the Core DNA Sequencing Facility at the University of Illinois at Urbana-Champaign for Sanger sequencing with the following primers to sequence the fusA [fusA2, fusA_seq1, Forward EF-G2, Forward EF-G3, Forward EF-G4]

[4] = test system: FA-Resistant strains of S. aureus; assay: MIC against 11 FA-resistant strains generated at 4x-32x the MIC; assay type: cell-based
Protocol: as §1, §2, §3

[5] = test system: clinical isolates of S. aureus; details: cited from earlier work
S. aureus 29213 = assay: MIC shift with 50% human serum; assay type: cell-based; details: S. aureus 29213, 50% human serum vs none
Protocol: as §1, with “Bacteria were cultured with cation-adjusted Muller-Hinton broth (Sigma-Aldrich, Cat #90922) in round-bottom 96-well plates (Corning, Cat #3788).” left out

S. aureus ATCC 29213 = assay: Resistance frequency, large inoculum method; assay type: cell-based
Protocol: as §2

[6] = Staphylococcus aureus, strain FA-4X-A, EF-G T385N
[7] = Staphylococcus aureus, strain FA-4X-B, EF-G T385N
[8] = Staphylococcus aureus, strain FA-8X-A, EF-G T385N
[9] = Staphylococcus aureus, strain FA-8X-B, EF-G R464L
[10] = Staphylococcus aureus, strain FA-16X-A, EF-G H457Y
[11] = Staphylococcus aureus, strain FA-32X-B, EF-G P406L
[12] = Staphylococcus aureus, strain FA-32X-D, EF-G T436I

## CC(=O)O[C@H]1C[C@@]2(C)[C@@H](C[C@@H](O)[C@H]3[C@@]4(C)CC[C@@H](O)[C@@H](C)[C@@H]4CC[C@@]32C)/C1=C(\CCC=C(C)C)C(=O)O [FA, Fusidic acid]
[1]; male, CD-1, mouse, microsomes, 3 h, 50 μM, pH 7.4
  Metabolic Stability in Mouse Liver Microsomes (percent remaining): 82 ± 0.8%^
[2]
  IC50: 146 ± 11 µM
[3]; read-out: MIC for FA, strain FA-32X-1, EF-G H457Y
  MIC: 128 µg/mL (≈ 248 µM)
[3]; read-out: MIC for FA, strain FA-32X-2, EF-G T436I
  MIC: 8 µg/mL (≈ 15.5 µM)
[3]; read-out: MIC for FA, strain FA-32X-3, EF-G H457Y
  MIC: 128 µg/mL (≈ 248 µM)
[3]; read-out: MIC for FA, strain FA-32X-6, EF-G T436I
  MIC: 16 µg/mL (≈ 31 µM)
[3]; read-out: MIC for FA, strain FA-32X-7, EF-G H457Y
  MIC: 128 µg/mL (≈ 248 µM)
[3]; read-out: MIC for FA, strain FA-32X-8, EF-G H457Y
  MIC: 128 µg/mL (≈ 248 µM)
[3]; read-out: MIC for FA, strain FA-32X-10, EF-G H457Y
  MIC: 128 µg/mL (≈ 248 µM)
[3]; read-out: MIC for FA, strain FA-32X-12, EF-G H457Y
  MIC: 128 µg/mL (≈ 248 µM)
[3]; read-out: MIC for FA, strain FA-32X-13, EF-G H457Y
  MIC: 128 µg/mL (≈ 248 µM)
[3]; read-out: MIC for FA, strain FA-32X-14, EF-G H457Y
  MIC: 128 µg/mL (≈ 248 µM)
[3]; read-out: MIC for FA, strain FA-32X-15, EF-G H457Y
  MIC: 128 µg/mL (≈ 248 µM)
[3]; read-out: MIC for FA, strain FA-32X-19, EF-G H457Y
  MIC: 128 µg/mL (≈ 248 µM)
[3]; read-out: MIC for FA, strain FA-32X-20, EF-G H457Y
  MIC: 128 µg/mL (≈ 248 µM)
[4]; [6]
  MIC: 8 µg/mL (≈ 15.5 µM)
[4]; [7]
  MIC: 8 µg/mL (≈ 15.5 µM)
[4]; [8]
  MIC: 8 µg/mL (≈ 15.5 µM)
[4]; [9]
  MIC: 16 µg/mL (≈ 31 µM)
[4]; [10]
  MIC: 128 µg/mL (≈ 248 µM)
[4]; [11]
  MIC: 32 µg/mL (≈ 61.9 µM)
[4]; [12]
  MIC: 8 µg/mL (≈ 15.5 µM)
[4]; strain FA-32×-B
  MIC: 32 µg/mL (≈ 61.9 µM)
[5]; United States, analysis conducted in 2011
  S. aureus strains susceptible: 99.7%
[5]; staphylococcal clinical isolates that carry the fusC gene
  MIC range: 2 to 64 µg/mL
[5]; strains that possess the fusB gene
  MIC range: 4 to 1024 µg/mL

## CC(=O)O[C@H]1C[C@@]2(C)[C@@H](C[C@@H](O)[C@H]3[C@@]4(C)CC[C@@H](O)[C@@H](C)[C@@H]4CC[C@@]32C)/C1=C(\CCC=C1CCCC1)C(=O)O [FA-CP, (Z)-2-((3R,4S,5S,8S,9S,10S,11R,13R,14S,16S)-16-acetoxy-3,11-dihydroxy-4,8,10,14-tetramethylhexadecahydro-17H-cyclopenta[a]phenanthren-17-ylidene)-5-cyclopentylidenepentanoic acid]
S. aureus 29213
  Fold Change Increase in MIC with 50% Human Serum: 8X
[1]; 3 h at 37° C., LC-MS/MS, ± SEM of 3 biological replicates
  Metabolic Stability in Mouse Liver Microsomes (percent remaining): 78 ± 4%
S. aureus ATCC 29213; at 2× and 32× the MIC
  Resistance frequency relative to FA: modest improvement in resistance frequency
S. aureus ATCC 29213; head-to-head with FA, 2×-32× the MIC
  Resistance frequency relative to FA: improvement in resistance frequency relative to FA
[3]; read-out: MIC for FA-CP, strain FA-CP-32X-1, EF-G H457Y
  MIC: 32 µg/mL (≈ 59 µM)
[3]; read-out: MIC for FA-CP, strain FA-CP-32X-2, EF-G H457Y
  MIC: 64 µg/mL (≈ 118 µM)
[3]; read-out: MIC for FA-CP, strain FA-CP-32X-3, EF-G H457Y
  MIC: 64 µg/mL (≈ 118 µM)
[3]; read-out: MIC for FA-CP, strain FA-CP-32X-4, EF-G H457Y
  MIC: 32 µg/mL (≈ 59 µM)
[3]; read-out: MIC for FA-CP, strain FA-CP-32X-5, EF-G H457Y
  MIC: 64 µg/mL (≈ 118 µM)
[3]; read-out: MIC for FA-CP, strain FA-CP-32X-6, EF-G H457Y
  MIC: 64 µg/mL (≈ 118 µM)
[3]; read-out: MIC for FA-CP, strain FA-CP-32X-7, EF-G H457Y
  MIC: 64 µg/mL (≈ 118 µM)
[3]; read-out: MIC for FA-CP, strain FA-CP-32X-8, EF-G H457Y
  MIC: 64 µg/mL (≈ 118 µM)
[3]; read-out: MIC for FA-CP, strain FA-CP-32X-9, EF-G H457Y
  MIC: 32 µg/mL (≈ 59 µM)
[3]; read-out: MIC for FA-CP, strain FA-CP-32X-10, EF-G D434N
  MIC: 32 µg/mL (≈ 59 µM)
[3]; read-out: MIC for FA-CP, strain FA-CP-32X-11, EF-G H457Y
  MIC: 32 µg/mL (≈ 59 µM)
[3]; read-out: MIC for FA-CP, strain FA-CP-32X-12, EF-G D434N
  MIC: 32 µg/mL (≈ 59 µM)
[3]; read-out: MIC for FA-CP, strain FA-CP-32X-13, EF-G H457Y
  MIC: 64 µg/mL (≈ 118 µM)
[3]; read-out: MIC for FA-CP, strain FA-CP-32X-14, EF-G H457Y
  MIC: 32 µg/mL (≈ 59 µM)
[3]; read-out: MIC for FA-CP, strain FA-CP-32X-15, EF-G H457Y
  MIC: 64 µg/mL (≈ 118 µM)
[3]; read-out: MIC for FA-CP, strain FA-CP-32X-16, EF-G F88L
  MIC: 64 µg/mL (≈ 118 µM)
[3]; read-out: MIC for FA-CP, strain FA-CP-32X-17, EF-G F88L
  MIC: 64 µg/mL (≈ 118 µM)
[3]; read-out: MIC for FA-CP, strain FA-CP-32X-18, EF-G H457Y
  MIC: 64 µg/mL (≈ 118 µM)
[3]; read-out: MIC for FA-CP, strain FA-CP-32X-19, EF-G H457Y
  MIC: 32 µg/mL (≈ 59 µM)
[3]; read-out: MIC for FA-CP, strain FA-CP-32X-20, EF-G H457Y
  MIC: 32 µg/mL (≈ 59 µM)
[3]; colonies generated from the same compound at 32× the MIC
  Fold increase from WT S. aureus of highest MIC: 512
[4]; [6]
  MIC: 2 µg/mL (≈ 3.68 µM)
[4]; [7]
  MIC: 2 µg/mL (≈ 3.68 µM)
[4]; [8]
  MIC: 2 µg/mL (≈ 3.68 µM)
[4]; [9]
  MIC: 8 µg/mL (≈ 14.7 µM)
[4]; [10]
  MIC: 64 µg/mL (≈ 118 µM)
[4]; Staphylococcus aureus, strain FA-32X-A, EF-G F88L
  MIC: 128 µg/mL (≈ 236 µM)
[4]; [11]
  MIC: 4 µg/mL (≈ 7.37 µM)
[4]; Staphylococcus aureus, strain FA-32X-C, EF-G H457L
  MIC: 128 µg/mL (≈ 236 µM)
[4]; [12]
  MIC: 2 µg/mL (≈ 3.68 µM)
[4]; Staphylococcus aureus, strain FA-32X-E, EF-G H457N
  MIC: 128 µg/mL (≈ 236 µM)
[4]; Staphylococcus aureus, strain FA-32X-F, EF-G D434N
  MIC: 32 µg/mL (≈ 59 µM)
[4]; eleven FA-resistant S. aureus strains
  Fold improvement in activity against FA-resistant strains relative to FA: 2-8 fold
